Data reported in patent publication US20260137638A1, “STAT3 INHIBITORS FOR USE IN THE TREATMENT OF NON-VIRAL LIVER CANCER” (Tyardi Operating Company, Inc., priority 2022, published 2026).

System: HCC
Assay: Safety and efficacy study of TTI-101 in advanced solid tumors: best response (RECIST v1.1) in HCC participants
Type: in vivo, human
Details: for time partial response was sustained / best response: reduction in the sum of overall RECIST targets: non-viral HCC
Description: This study evaluates the safety and efficacy of TTI-101 in advanced solid tumors. TTI-101 was administered twice daily at doses of 1.6 (Cohort 1; n=4), 3.2 (Cohort 2; n=3), or 6.4 mg/kg/dose (Cohort 3; n=8) of a Labrasol/PEG400 formulation (60:40% v/v) or 6.4 mg/kg/dose (Cohort 3a: n=37) or 12.8 mg/kg/dose (Cohort 4; n=10) of oral capsule formulation (composition comprising TTI-101 at a concentration of 92 mg/g in a mixture of Kolliphor RH 40 (PEG-40 hydrogenated castor oil). PEG600. Polysorbate 20, Labrasol, and citric acid). TTI-101 was administered twice daily at 6.4 mg/kg/dose (Cohort 5; n=7) of oral tablet formulation (comprising 200 mg of TTI-101).
These patients had failed all prior lines of therapy (median number of prior therapies=3). Furthermore, a disease control rate (defined as the proportion of patients in whom the best overall response is determined as complete response, partial response or stable disease according to RECIST v1.1) of 60% has been observed in the 15 heavily pre-treated HCC patients (9/15), which is similar to that reported with sorafenib in first-line therapy.

[1] = number of participants, 7 non-viral HCC participants
[2] = number of participants, 8 viral HCC participants
[3] = number of participants, all 15 evaluable HCC participants

COc1ccc(S(=O)(=O)Nc2cc(-c3c(O)ccc4ccccc34)c(O)c3ccccc23)cc1 [TTI-101, N-(1′,2-dihydroxy-1,2′-binaphthalen-4′-yl)-4-methoxybenzenesulfonamide]
Disease Control Rate, HCC (non-viral) (7 non-viral HCC participants): 57% | Disease Control Rate, HCC (viral) (8 viral HCC participants): 63% | time partial response was sustained (Participant A, 6.4 mg/kg/day): 11 months | best response: reduction in the sum of overall RECIST targets (Participant A, 6.4 mg/kg/day, failed sorafenib, pembrolizumab, nivolumab, nivolumab+bevacizumab): 42% | time partial response was sustained (Participant B, 12.8 mg/kg/day): 14 months | best response: reduction in the sum of overall RECIST targets (Participant B, 12.8 mg/kg/day, failed lenvatinib and nivolumab): 66% | best response: reduction in the sum of overall RECIST targets (Participant C, 12.8 mg/kg/day, failed atezolizumab+bevacizumab): 45% | Disease Control Rate, HCC (complete response, partial response or stable disease by RECIST v1.1, 15 heavily pre-treated HCC patients (9/15)): 60% | Progressive Disease, HCC (non-viral) [1]: 3 | Stable Disease, HCC (non-viral) [1]: 1 | Partial Response, HCC (non-viral) (number of participants, 7 non-viral HCC participants, TTI-101 monotherapy): 3 | Progressive Disease, HCC (viral) [2]: 3 | Stable Disease, HCC (viral) [2]: 5 | Partial Response, HCC (viral) (number of participants, 8 viral HCC participants, TTI-101 monotherapy): 0 | Progressive Disease, HCC [3]: 6 | Stable Disease, HCC [3]: 6 | Partial Response, HCC (number of participants, all 15 evaluable HCC participants, TTI-101 monotherapy, after two 28-day cycles, radiologically confirmed): 3
